Consider 38 compounds from patent US4552888A, “Ascorbic acid ethers in angiogene” (Eli Lilly and Company, priority 1983, dated 1985).

The structures appear in SMILES notation. Structures can show the parent of a compound that is named as a salt.

For the first data set, the system named is angiogenesis factor. Kind of data set: Inhibition of angiogenesis factor (3683 Morris hepatoma lysosomal-mitochondrial pellet) induced serpentine vessels in mice. It counts as in vivo, mice (SPF/ND4 female). The settings on record: Mus musculus, ip, 24 h, Table 1; dose 300 mg./kg. As for the experimental part:
Lysosomal-mitochondrial pellets containing angiogenesis factor are prepared from 3683 Morris hepatoma. The pellet is diluted with 7-8 ml. of 15% ficoll. With this dilution, 8-10 serpentine vessels will be produced per 0.2 cc. injection as described below for the control group.
Next, 15 SPF/ND4 female mice weighing 20-22 g. are shaved on the left side and then divided into three groups of five each. One group (drug group) is injected subcutaneously and laterally with 0.20 cc. of the lysosomal-mitochondrial preparation diluted with 15% ficoll. This group of mice is then dosed individually by the intraperitoneal route with 0.5 cc. of a solution or suspension in a standard vehicle containing the compound under test, usually at an initial dose level of 300 mg./kg. If this dose level is toxic, two-fold dilutions are made until all mice survive a single dose. The second group of mice (control group) is injected subcutaneously and laterally with 0.2 cc. of the lysosomal-mitochondrial suspension diluted with 15% ficoll and dosed intraperitoneally with 0.5 cc. of the vehicle alone. The third group (negative control) is injected with ficoll solution only (no treatment with drug or vehicle). The mice are sacrificed after 24 hours. Each mouse is placed on its side on a dissecting board with the shaved side up. Starting at the flank, the skin is cut straight to the back of the animal. A similar cut is made behind the front leg. Then the skin is cut along the back making a flap of about one inch by two inches. The skin is carefully separated from the connective tissue using forceps and a scalpel. The skin flap is then laid back exposing the lysosomal-mitochondrial implant which is attached to the skin. The skin flap is gently flattened out and with the use of a binocular dissecting scope, serpentine vessels are observed around the lysosomal-mitochondrial implant and their number counted. All observations of the number of serpentine vessels are made at the same power of the microscope (1X). The average number of serpentine vessels for each group is calculated. The percent inhibition is then calculated according to the following equation. [formula] where sv=average number of serpentine vessels.
If the negative control group described above has any serpentine vessels, the test is invalid due to contamination of the ficoll solution.
Table I covers compounds according to formula I above in which R^2 and R^3 are both H, table II covers compounds in which R^2 and R^3 form a 1-methylethylidene group, and Table III compounds in which R^2 plus R^3 equal a benzylidene group or other group.
One of the compounds of this invention, 3-O-n-octadecyl-5,6-O-(1-methylethylidene)-L-ascorbic acid was tested at a series of dose levels for its ability to inhibit tumor angiogenesis and the results of these tests are set forth in Table IV.
For `O=C1O[C@H]([C@@H](O)CO)C(OCCCOc2ccccc2)=C1O` [3-O-(3-phenoxypropyl)-L-ascorbic acid], the inhibition in vivo at 300 mg/kg was 68%.
For the compound `O=C1O[C@H]([C@@H](O)CO)C(OCc2cccc(Br)c2)=C1O` [3-O-(3-bromobenzyl)-L-ascorbic acid], the inhibition in vivo at 300 mg/kg is 74%.
Still for that read-out and setting: the result for `CCCCCCCCCCCCCCCOC1=C(O)C(=O)O[C@@H]1[C@@H](O)CO` [3-O-n-pentadecyl-L-ascorbic acid] reads 50%.
Consider `O=C1O[C@H]([C@@H](O)CO)C(OCCOCCBr)=C1O` [3-O-(2-bromoethoxyethyl)-L-ascorbic acid], for which the inhibition in vivo at 300 mg/kg was determined as 36%.
Consider `O=C1O[C@H]([C@@H](O)CO)C(OCCN2C(=O)c3ccccc3C2=O)=C1O` [3-O-(2-phthalimidoethyl)-L-ascorbic acid], for which the inhibition in vivo at 300 mg/kg came to 55%.

Still in this data set, the particulars now being: Mus musculus, ip, 24 h, Table 1; i.p.; dose 25 mg./kg.; 24 hours; read-out: average % inhibition (serpentine vessels).
For `O=C(O)CCCCCCCCCCOC1=C(O)C(=O)O[C@@H]1[C@@H](O)CO` [3-O-(ω-hydroxycarbonyldecyl)-L-ascorbic acid], the inhibition in vivo at 25 mg/kg is 41%.
For `O=C1O[C@H]([C@@H](O)CO)C(OCc2cccc(Cl)c2)=C1O` [3-O-(3-chlorobenzyl)-L-ascorbic acid], the inhibition in vivo at 25 mg/kg came out at 41%.
`CCCCCCCCCCCCCCCCOC1=C(O)C(=O)O[C@@H]1[C@@H](O)CO` [3-O-n-hexadecyl)-L-ascorbic acid]: the inhibition in vivo at 25 mg/kg came out at 31%.
Same read-out and setting: the result for `Cc1cccc(COC2=C(O)C(=O)O[C@@H]2[C@@H](O)CO)c1` [3-O-(3-methylbenzyl)-L-ascorbic acid] reads 54%; that for `O=C1O[C@H]([C@@H](O)CO)C(OCc2cccc(F)c2)=C1O` [3-O-(3-fluorobenzyl)-L-ascorbic acid], 52%.

Still in this data set, the particulars now being: Mus musculus, ip, 24 h, Table 2; dose 10 mg./kg.
Turning to `CC1(C)OC[C@@H]([C@H]2OC(=O)C(O)=C2O)O1` [5,6-O-(1-methylethylidene)-L-ascorbic acid], the inhibition in vivo at 10 mg/kg is 48%.

The data set is the same for the next values; noted with them: Mus musculus, ip, 24 h, Table 2; dose 150 mg./kg.
The compound `CC1(C)OC[C@@H]([C@H]2OC(=O)C(O)=C2OCCCCCCCCCCCO)O1` [3-O-(11-hydroxyundecyl)-5,6-O-(1-methylethylidene)-L-ascorbic acid] showed an inhibition in vivo at 150 mg/kg of 67%.

The data set is the same for the next values; noted with them: Mus musculus, ip, 24 h, Table 2; dose 240 mg./kg.
`CC1(C)OC[C@@H]([C@H]2OC(=O)C(O)=C2OCCOCCBr)O1` [3-O-(2-bromoethoxyethyl)-5,6-O-(1-methylethylidene)-L-ascorbic acid]: the inhibition in vivo at 240 mg/kg is 71%.

Staying with this data set, now noted: Mus musculus, ip, 24 h, Table 2; i.p.; dose 25 mg./kg.; 24 hours; read-out: % inhibition (serpentine vessels).
Regarding `CC1(C)OC[C@@H]([C@H]2OC(=O)C(O)=C2OCc2cccc(F)c2)O1` [3-O-(3-fluorobenzyl)-5,6-O-(1-methylethylidene)-L-ascorbic acid], the inhibition in vivo at 25 mg/kg was in the range of 27 to 82%.
On the same count and under the same terms, the result for `CCCCCCCCCCCCCCCCCCOC1=C(OCCCCCCCCCCCCCCCCCC)[C@@H]([C@@H]2COC(C)(C)O2)OC1=O` [2,3-O-bis(n-octadecy-5,6-O-(1-methylethylidene)-L-ascorbic acid] reads 18 to 85%.

Staying with this data set, now noted: Mus musculus, ip, 24 h, Table 3; 150 mg./kg. dose intraperitoneally.
Take `COCCOC1=C(O)C(=O)O[C@@H]1[C@@H]1COC(c2ccccc2)O1` (stereo partly drawn) [3-(2-methoxyethyl)-5,6-O-benzylidine-L-ascorbic acid]: the inhibition in vivo at 150 mg/kg is 31%.
Same read-out and setting: the result for `CCCCOC1=C(O)C(=O)O[C@@H]1[C@@H]1COC(c2ccccc2)O1` (stereo partly drawn) [3-O-n-butyl-5,6-O-(benzylidene)-L-ascorbic acid] reads 60%.

The same data set, now with this note: Table 1; i.p.; dose 25 mg./kg.; 24 hours.
Regarding `O=C1O[C@H]([C@@H](O)CO)C(OCc2ccccc2Cl)=C1O` [R=2-chlorobenzyl, R^1=H (Table 1)], the “average % inhibition (serpentine vessels)” value is reported as 55%.

The data set is the same for the next values; noted with them: Table 2; i.p.; dose 10 mg./kg.; 24 hours.
On to `COC1=C(O)C(=O)O[C@@H]1[C@@H]1COC(C)(C)O1` [R=methyl, R^1=H (Table 2)], for which the “% inhibition (serpentine vessels)” value is 15%.
For `CCCCOC1=C(O)C(=O)O[C@@H]1[C@@H]1COC(C)(C)O1` [R=n-butyl, R^1=H (Table 2)], the “% inhibition (serpentine vessels)” value came out at 60%.
Turning to `CCOC(=O)COC1=C(O)C(=O)O[C@@H]1[C@@H]1COC(C)(C)O1` [R=C2 H5 OCOCH2, R^1=H (Table 2)], the “% inhibition (serpentine vessels)” value was found to be 12%.
On to `CCCCCCCCCCOC1=C(O)C(=O)O[C@@H]1[C@@H]1COC(C)(C)O1` [R=n-decyl, R^1=H (Table 2)], for which the “% inhibition (serpentine vessels)” value amounted to 48%.
Still for that read-out and setting: for `CCCCCCOC1=C(O)C(=O)O[C@@H]1[C@@H]1COC(C)(C)O1` [R=n-hexyl, R^1=H (Table 2)] the value was 41%.

Still in this data set, the particulars now being: Table 2; i.p.; range dose 10-240 mg./kg.; 24 hours.
Turning to `COCCOC1=C(O)C(=O)O[C@@H]1[C@@H]1COC(C)(C)O1` [3-O-(2-methoxyethyl)-5,6-O-(1-methylethylidene)-L-ascorbic acid], the “% inhibition (serpentine vessels)” value is 28-61%.

Tested on in a further data set: not listed separately
Kind of data set: pKa by titration. Type of data set: physicochemical.
Conditions: not given
With `CCCCCCCCCCCCCCCCCCOC1=C(OCCCCCCCCCCCCCCCCCC)[C@@H]([C@@H]2COC(C)(C)O2)OC1=O` [2,3-O-bis(n-octadecy-5,6-O-(1-methylethylidene)-L-ascorbic acid], the titratable group result is “No titratable group”.
For `COCCOC1=C(O)C(=O)O[C@@H]1[C@@H]1COC(C)(C)O1` [3-O-(2-methoxyethyl)-5,6-O-(1-methylethylidene)-L-ascorbic acid], the pKa (commonly the pH at which an ionisable group is half protonated) turned out to be 10.31.
Consider `Cc1ccccc1COC1=C(OCc2ccccc2C)[C@@H]([C@@H]2COC(C)(C)O2)OC1=O` [2,3-bis(O-2-methylbenzyl)-5,6-O-(1-methylethylidene-L-ascorbic acid], for which the titratable group entry is “No titratable group”.
For the compound `CC1(C)OC[C@@H]([C@H]2OC(=O)C(OCCCCC#N)=C2OCCCCC#N)O1` [2,3-O-bis(4-cyanobutyl)-5,6-O-(1-methylethylidene)-L-ascorbic acid], the titratable group entry is “No titratable group”.
With `CCCCCCCCCCCCCCCCOC1=C(OCCCCCCCCCCCCCCCC)[C@@H]([C@@H](O)CO)OC1=O` [2,3-di-(O-n-hexadecyl)-L-ascorbic acid], the titratable group result is “no titratable group”.
As for `CCCCCCCCCCCCCCCOC1=C(OCCCCCCCCCCCCCCC)[C@@H]([C@@H]2COC(C)(C)O2)OC1=O` [2,3-O-bis(n-pentadecyl)-5,6-O-(1-methylethylidene)-L-ascorbic acid], the titratable group result is listed as “No titratable groups”.

Still in this data set, the particulars now being: read-out: pKa.
For `CCCCCCCCCCCCCCCCCCOC1=C(O)C(=O)O[C@@H]1[C@@H]1COC(C)(CCl)O1` (stereo partly drawn) [3-O-n-octadecyl-5,6-O-(1-chloromethylethylidene)-L-ascorbic acid], the pKa came out at 9.
Turning to `CC1(C)OC[C@@H]([C@H]2OC(=O)C(O)=C2OCCCCCCCCCCCO)O1` [3-O-(11-hydroxyundecyl)-5,6-O-(1-methylethylidene)-L-ascorbic acid], the pKa is 10.8.
Same read-out and setting: for `CCCCCCCCCCCCCCCOC1=C(O)C(=O)O[C@@H]1[C@@H]1COC(C)(C)O1` [3-O-n-pentadecyl-5,6-O-(1-methylethylidene)-L-ascorbic acid] the value was 10.9; for `CCCCCCCCCCCCCCCCCCOC1=C(OCCCN(C)C)C(=O)O[C@@H]1[C@@H](O)CO` [2-O-(3-dimethylaminopropyl)-3-O-n-octadecyl-L-ascorbic acid hydrochloride], 8.
`O=C1O[C@H]([C@@H](O)CO)C(OCc2cccc(Br)c2)=C1O` [3-O-(3-bromobenzyl)-L-ascorbic acid]: the pKa is 10.5.
Still for that read-out and setting: for `CC1(C)OC[C@@H]([C@H]2OC(=O)C(O)=C2O)O1` [5,6-O-(1-methylethylidene)-L-ascorbic acid] the value was 6.1; for `CCCCCCCCCCCCCCCCOC1=C(O)C(=O)O[C@@H]1[C@@H](O)CO` [3-O-n-hexadecyl)-L-ascorbic acid], 11.1.
As for `CC1(CCl)OC[C@@H]([C@H]2OC(=O)C(O)=C2O)O1` (stereo partly drawn) [5,6-O-(1-chloromethylethylidene)-L-ascorbic acid], the pKa was found to be 6.1.
Still for that read-out and setting: for `COc1ccc(OC)c(C(=O)COC2=C(O)C(=O)O[C@@H]2[C@@H]2COC(C)(C)O2)c1` [3-O-(2,5-dimethoxyphenacyl)-5,6-O-(1-methylethylidene)-L-ascorbic acid] the value was 10.6; for `CC1(C)OC[C@@H]([C@H]2OC(=O)C(O)=C2OCCOCCBr)O1` [3-O-(2-bromoethoxyethyl)-5,6-O-(1-methylethylidene)-L-ascorbic acid], 10.4; for `Cc1ccccc1COC1=C(O)C(=O)O[C@@H]1[C@@H](O)CO` [3-O-(2-methylbenzyl)-L-ascorbic acid], 10.8.
For the compound `O=C1OC(C2COC(Cc3ccccc3)(Cc3ccccc3)O2)C(O)=C1O` [5,6-O-(1-benzyl-2-phenylethylidene)-L-ascorbic acid], the pKa stood at 6.55.
On the same count and under the same terms, the result for `CCCCCCCCCCCCCCCCCCOC1=C(O)C(=O)O[C@H]1[C@H](O)CO` [3-O-n-octadecyl-D-ascorbic acid] reads 11; that for `CCCCCCCCCCCCCCCCCCOC1=C(O)C(=O)O[C@@H]1[C@H](O)CO` (relative stereo) [3-O-n-octadecyl isoascorbic acid], 11.6.
Regarding `CCCCCCCCCCC1OC[C@@H]([C@H]2OC(=O)C(O)=C2O)O1` (stereo partly drawn) [5,6-O-undecylidene-L-ascorbic acid], the pKa is 6.48.
